Data as given in ChEMBL document CHEMBL5584266, “Novel selective proline-based peptidomimetics for human cathepsin K inhibition” (Bioorg Med Chem Lett, 2024).

Columns and labels:
[1] = biological target: Procathepsin L (Homo sapiens, UniProt P07711); assay: Binding affinity to human Cathepsin L assessed as inhibition constant
[2] = biological target: Cathepsin S (Homo sapiens, UniProt P25774); assay: Binding affinity to human Cathepsin S assessed as inhibition constant
[3] = biological target: Cathepsin B (Homo sapiens, UniProt P07858); assay: Binding affinity to human Cathepsin B assessed as inhibition constant
[4] = biological target: T1, Cathepsin K (Homo sapiens, UniProt P43235); assay: Binding affinity to human Cathepsin K assessed as inhibition constant
T1 sequence (P43235 whole entry): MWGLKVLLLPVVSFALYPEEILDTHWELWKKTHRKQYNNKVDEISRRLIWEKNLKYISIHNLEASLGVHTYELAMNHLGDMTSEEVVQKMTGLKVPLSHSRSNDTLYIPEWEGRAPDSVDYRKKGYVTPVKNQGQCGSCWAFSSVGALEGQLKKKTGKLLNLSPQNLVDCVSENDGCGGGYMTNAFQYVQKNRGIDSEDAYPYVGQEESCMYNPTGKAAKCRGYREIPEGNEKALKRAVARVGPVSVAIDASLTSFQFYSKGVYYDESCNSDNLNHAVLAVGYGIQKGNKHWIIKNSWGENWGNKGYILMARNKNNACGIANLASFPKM

Chain of Procathepsin L (P07711 whole entry): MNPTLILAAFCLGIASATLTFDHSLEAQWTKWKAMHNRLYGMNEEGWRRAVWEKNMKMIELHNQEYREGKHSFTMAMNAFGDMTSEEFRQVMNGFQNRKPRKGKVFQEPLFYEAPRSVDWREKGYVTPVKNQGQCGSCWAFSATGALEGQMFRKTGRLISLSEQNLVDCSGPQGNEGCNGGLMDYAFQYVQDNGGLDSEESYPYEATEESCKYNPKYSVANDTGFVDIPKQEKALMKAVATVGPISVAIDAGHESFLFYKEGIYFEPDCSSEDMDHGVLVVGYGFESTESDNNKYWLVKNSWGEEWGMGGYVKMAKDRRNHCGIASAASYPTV
Chain of Cathepsin S (P25774 whole entry): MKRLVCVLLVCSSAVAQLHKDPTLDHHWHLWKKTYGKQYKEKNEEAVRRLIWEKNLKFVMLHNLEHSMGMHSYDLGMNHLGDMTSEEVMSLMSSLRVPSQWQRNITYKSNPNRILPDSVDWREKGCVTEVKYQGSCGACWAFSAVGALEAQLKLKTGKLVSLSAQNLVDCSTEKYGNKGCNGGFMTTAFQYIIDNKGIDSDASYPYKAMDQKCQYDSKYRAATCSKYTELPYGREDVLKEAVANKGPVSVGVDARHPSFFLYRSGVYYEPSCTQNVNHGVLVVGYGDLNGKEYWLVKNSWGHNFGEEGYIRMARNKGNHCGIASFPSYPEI

CC(C)C[C@H](NC(=O)c1cc(C(C)(C)C)nn1C)C(=O)NC1(C#N)CC1
Ki ([1]; read-out: Ki): ~0.008 µM | Ki ([1]; read-out: pKi (converted)): 0.00158 µM | Ki [2]: 0.0794 µM | Ki [3]: > 100 µM | Ki ([4]; read-out: Ki): ~0.008 µM

C[C@H]1C[C@@H](C(=O)NC2(C#N)CC2)N(S(=O)(=O)c2cc(C(F)(F)F)nn2C)C1
Ki ([1]; read-out: pKi (converted)): > 100 µM | Ki [3]: > 100 µM

C[C@H]1C[C@@H](C(=O)NC2(C#N)CC2)N(C(=O)c2cc(C(F)(F)F)nn2C)C1
Ki ([1]; read-out: pKi (converted)): > 100 µM | Ki [3]: > 100 µM

C[C@H]1C[C@@H](C(=O)NC2(C#N)CC2)N(C(=O)c2ccccc2)C1
Ki ([1]; read-out: pKi (converted)): > 100 µM | Ki [3]: > 100 µM

C[C@H]1C[C@@H](C(=O)NC2(C#N)CC2)N(C(=O)OC(C)(C)C)C1
Ki ([1]; read-out: pKi (converted)): > 100 µM | Ki [3]: > 100 µM

C[C@H]1C[C@@H](C(=O)NC2(C#N)CC2)N(C(=O)c2cc(C(C)(C)C)nn2C)C1
Ki ([1]; read-out: pKi (converted)): > 100 µM | Ki [3]: > 100 µM

C[C@H]1C[C@@H](C(=O)NC2(C#N)CC2)N(C(=O)Cc2ccccc2)C1
Ki ([1]; read-out: pKi (converted)): > 100 µM | Ki [3]: > 100 µM

CC(C)(F)C[C@H](N[C@@H](c1ccc(-c2ccc(S(C)(=O)=O)cc2)cc1)C(F)(F)F)C(=O)NC1(C#N)CC1 [ODANACATIB]
Ki ([4]; read-out: pKi (converted)): 0.0002 µM
